Data from patent US12064488B2, “Nitroxide containing amyloid binding agents for imaging and therapeutic uses” (The Regents of the University of California, priority 2015, dated 2024).

What was measured:
[1] = target: T1, amyloid (AB) in 5xFAD mouse brain tissue (Homo sapiens, UniProt P05067); experiment: EPR spectroscopy of brain slices labeled in vitro; assay type: binding; settings: 5xFAD brain tissue treated in vitro
T1 construct: produces elevated amyloid beta levels in the brain; from tissue; host or cells: brain of 5xFAD transgenic mice (400 µm coronal slices)
T1 sequence (P05067 672-713 limits assumed): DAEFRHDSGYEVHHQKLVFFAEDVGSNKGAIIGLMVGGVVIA
Description: Samples were loaded into a quartz cell and examined by electron paramagnetic resonance (EPR) spectroscopy. […] Thus, in agreement with results from the MRI measurements, the lack of EPR signal from the WT+SLF brain section excludes non-specific binding of SLF in these tissue samples. […] The broad EPR spectrum from the +SLF 5xFAD reflects a strongly immobilized spin probe, consistent with high affinity binding to a solidified matrix.

[2] = target: T2, amyloid plaque (AB) in 5xFAD mouse brain slices (Homo sapiens, UniProt P05067); experiment: T2/T2*-weighted MRI of coronal brain slices labeled in vitro with spin-labeled compound; settings: 5xFAD brain slices/specimens incubated in vitro with compound
T2 construct: produces elevated amyloid beta levels in the brain; from tissue; host or cells: brain of 5xFAD transgenic mice (400 µm coronal slices)
T2 sequence (P05067 672-713 limits assumed): as above
Procedure: MR images of coronal brain slices (400 μm thick) were obtained from a transgenic AD mouse model (5xFAD) with and without exposure to HO-4160 nitroxide spin-labeled […] (SLF), where the SLF-negative sample was treated with DMSO vehicle equal to the SLF-exposed sample. Following the labeling period with either SLF or the DMSO vehicle control, the brain slices were imbedded into agarose and imaged by MRI. Measurements were made in three separate experiments, using slices from unique AD and wild type (WT) mice in each experiment.
5xFAD brain slices treated with SLF decrease in intensity to a mean value of 1.6±0.1×10^5, compared to the T2-weighted images of the untreated samples, with a mean value of 2.6±0.1×10^5. Evaluation of the two sets by the unpaired t-test supports a significant difference among these groups (p<0.01). With respect to T2*, there also is a significant (p<0.02) intensity difference between the two groups of 5xFAD specimens, with a mean intensity of 1.4±0.2×10^5 for the SLF-treated samples, and a mean intensity of 2.3±0.1×10^5 for the untreated samples. In addition, T2 and T2*-weighted imaging of corresponding slices from WT mice show no difference between the SLF-treated and SLF-negative (not shown) specimens.
Both T2 and T2* signal suppression was calculated in each of the three experiments. The average suppression values were calculated according to the equation: SS %=[(SIref−SI)/SIref]*100 where SI is the average signal intensity of the 5xFAD SLF+ section and SIref is the average signal intensity of the 5xFAD SLF− or WT SLF+ section. Calculation results are plotted in FIG. 7, where both the gray and white bars represent the suppression of MRI intensity found in the 5xFAD specimen following SLF treatment. The gray bars show signal suppression relative to the untreated 5xFAD brain, while the white bars compare the suppression relative to the SLF-treated specimens from WT mice. Relative to both controls, SLF generates ˜40% signal suppression for samples carrying a high amyloid-beta load. In the absence of SLF, the average intensity of the 5xFAD brain sections have a slightly lower T2/T2* MRI intensity than specimens from WT mice. This can be attributed to iron bound to deposits of AB, which has been previously observed in the MRI analyses of AD model mice (Vanhoutte et al. (2005); Jack et al. (2007); and Wadghiri et al. (2012)). Thus, the relative suppression is slightly higher when comparing the +SLF AD sample to the +SLF WT sample.

MC65 neuroblastoma cell = experiment: MC65 assay: protection against AB toxicity (MTT cell viability); assay type: cell-based, human; settings: MC65 cells, TC removal, 3 days
Description: The ability of agents to protect against AB toxicity can be measured according to their effect on the survivability of MC65 neuroblastoma cell (Maezawa et al. (2008) J. Neurochem. 104:457). In the MC65 model system, expression of the C-terminal region (C99) of the amyloid precursor protein (APP) is turned on in the absence of the transgene suppressor, tetracycline (TC). Upon APP-C99 induction (TC-), AB is generated after proteolysis by cellular γ-secretase […]. In the absence of protection, death of MC65 neuroblastoma cells results due to the intracellular accumulation of oligomeric AB (ABO). […] In Table 2 below, we report the ability of the SL-LRL1, SL-LRL2, SL-Res1, SL-Res2, and SL-Res3 compounds to protect against AB toxicity in the MC65 assay.
The cell culture model used for these studies was the human neuroblastoma cell line (MC65) equipped with conditional expression of the carboxyl-terminal 99 residues of the amyloid-beta precursor protein (APP-C99). AB is generated from APP-C99 after proteolysis by cellular γ-secretase. To induce cellular AB production, the transgene suppressor, tetracycline (TC), was removed from the media, as described previously (Maezawa et al. (2008)). Intracellular ABO starts to accumulate as early as 4 hours after TC removal. The compounds were added immediately after TC removal, and the cells were maintained for 3 days without media change before measuring cell viability. The cytotoxicity was determined on day 3 using a colorimetric MTT [3-(4,5-dimethylthiazol-2yl)-2,5-diphenyltetrazolium bromide] cell viability assay.

## Cc1c(C(N)=O)c(=O)oc2cc3c(cc12)nc(NCCNC(=O)C1CC(C)(C)N([O])C1(C)C)n3Cc1cccc(I)c1 (centres unmarked) [SL-LRL1, 3-(3-iodobenzyl)-8-methyl-6-oxo-2-((2-(2,2,5,5-tetramethyl-1-oxylpyrrolidine-3-carboxamido)ethyl)amino)-3,6-dihydrochromeno[6,7-d]imidazole-7-carboxamide Radical]
[1]
  EPR signal / binding to brain tissue: confirming the binding
[2]
  contrast in T2*-weighted imaging: strong negative contrast
MC65 neuroblastoma cell
  EC50: 4.5 µM

## Cc1c(C(N)=O)c(=O)oc2cc3c(cc12)nc(NCC1=CC(C)(C)N([O])C1(C)C)n3Cc1cccc(I)c1 [SL-LRL2, 3-(3-iodobenzyl)-8-methyl-6-oxo-2-(((2,2,5,5-tetramethyl-1-oxyl-2,5-dihydro-1H-pyrrol-3-yl)methyl)amino)-3,6-dihydrochromeno[6,7-d]imidazole-7-carboxamide Radical]
[2]
  contrast in T2*-weighted imaging: ability to generate negative contrast
MC65 neuroblastoma cell
  EC50: 3.5 µM

## CC1(C)C=C(COc2cc(O)cc(/C=C/c3ccc(O)cc3)c2)C(C)(C)N1[O] [SL-Res1]
[2]
  contrast in T2*-weighted imaging: ability to generate negative contrast
MC65 neuroblastoma cell
  EC50: 0.45 µM

## CC1(C)CC(NC(=O)COc2cc(O)cc(/C=C/c3ccc(O)cc3)c2)C(C)(C)N1[O] (centres unmarked) [SL-Res2, (E)-2-(3-hydroxy-5-(4-hydroxystyryl)phenoxy)-N-(2,2,5,5-tetramethyl-1-oxylpyrrolidin-3-yl)acetamide Radical]
[2]
  contrast in T2*-weighted imaging: ability to generate negative contrast
MC65 neuroblastoma cell
  EC50: 0.68 µM

## CC1(C)C=C(C(=O)Oc2ccc(/C=C/c3cc(O)cc(O)c3)cc2)C(C)(C)N1[O] [SL-Res3, (E)-4-(3,5-dihydroxystyryl)phenyl 2,2,5,5-tetramethyl-1-oxyl-2,5-dihydro-1H-pyrrole-3-carboxylate Radical]
[2]
  contrast in T2*-weighted imaging: ability to generate negative contrast
MC65 neuroblastoma cell
  EC50: 0.41 µM
